Experimental data from article PMC9607427, “Novel 7-Chloro-(4-thioalkylquinoline) Derivatives: Synthesis and Antiproliferative Activity through Inducing Apoptosis and DNA/RNA Damage” (Pharmaceuticals, 2022).

What was measured:
[1] = system: CCRF-CEM (childhood T cell acute lymphoblastic leukemia); assay: Cytotoxic MTS assay, CCRF-CEM; assay type: cell-based, human
Experimental: (§1) In vitro cytotoxic activity of final compounds 5–82 was evaluated after 3 days of incubation against eight cell lines derived from human solid tumors including lung (A549 cells) and colon (HCT116 and HCT116p53−/−) carcinomas, as well as leukemia cell lines (CCRF-CEM, CEM-DNR, K562, and K562-TAX) and osteosarcoma (U2OS cells). For comparison, non-malignant BJ and MRC-5 fibroblasts, and BJLD and MCR-5LD fibroblasts doxorubicin-resistant cell lines were used. Concentrations inhibiting the cell growth by 50% (IC50) were determined using a quantitative metabolic staining with 3-(4,5-dimethylthiazol-2yl)-5-(3-carboxymethoxyphenyl)-2-(4-sulfophenyl)-2H-tetrazolium (MTS) and are summarized in (Table 3).
(§2) Cytotoxic activity was determined by MTS assay following 72 h of incubation. IC50 is the lowest concentration that kills 50% of cells. The standard deviation in cytotoxicity assays is typically up to 20% of the average value. […] The tested cell lines: A549 (lung adenocarcinoma), BJ (noncancerous human fibroblasts from foreskin), BJLD (human lung fibroblast doxorubicin-resistant), CCRF-CEM (childhood T cell acute lymphoblastic leukemia), a daunorubicin-resistant subline of CCRF-CEM cells (CEM-DNR bulk), HCT116 (colorectal carcinoma), HCT116p53−/− (HCT116 with deleted p53 gene), K562 (chronic myeloid leukemia), K562-TAX (chronic myeloid leukemia paclitaxel-resistant subline), MRC-5 (noncancerous human lung fibroblasts), MRC-5LD (noncancerous human lung fibroblasts doxorubicin-resistant), and U2OS (osteosarcoma).
(§3) All cell lines were purchased from the American Tissue Culture Collection (ATCC). The A549 cell line is lung adenocarcinoma. MRC-5 and BJ cell lines were used as a non-tumor control and represent human fibroblasts. (MRC-5 LD and BJLD) are doxorubicin-resistant human lung fibroblast cell lines. The CCRF-CEM line is derived from T lymphoblastic leukemia, evincing high chemosensitivity, whereas K562 represent cells from an […] patient sample with bcr-abl translocation. The daunorubicin-resistant subline of CCRF-CEM cells (CEM-DNR bulk) and paclitaxel-resistant subline K562-TAX were selected in our laboratory by the cultivation of maternal cell lines in increasing concentrations of daunorubicin or paclitaxel, respectively. The CEM-DNR bulk cells overexpress MRP-1 and P-glycoprotein protein, whereas K562-TAX cells overexpress P-glycoprotein only. Both proteins belong to the family of ABC transporters and are involved in the primary and/or acquired multidrug-resistance phenomenon. The U2OS cell line is derived from osteosarcoma, HCT116 is a colorectal tumor cell line and its p53 gene knock-down counterpart (HCT116p53−/−, Horizon Discovery Ltd., Cambridge, UK) is a model of human cancers with p53 mutation frequently associated with poor prognosis. The cells were maintained in nunc/corning 80 cm^2 plastic tissue culture flasks and cultured in a cell culture medium according to ATCC or Horizon recommendations (DMEM/RPMI 1640 with 5 g/L glucose, 2 mM glutamine, 100 U/mL penicillin, […], 10% fetal calf serum, and NaHCO3).
(§4) The activity of compounds was determined using a standard 3-(4,5-dimethylthiazol-2-yl)-5-(3-carboxymethoxyphenyl)-2-(4-sulfophenyl)-2H-tetrazolium (MTS) and it was performed at the Institute of Molecular and Translational Medicine by a robotic platform (High-ResBiosolutions). Cell suspensions were prepared and diluted according to the particular cell type and the expected target cell density (25,000–35,000 cells/mL based on cell growth characteristics). Cells were added by automatic pipettor (30 µL) into 384-well microtiter plates. All tested compounds were dissolved in 100% DMSO and four-fold dilutions of the intended test concentration were added in 0.15 µL aliquots at time zero to the microtiter plate wells by the echo acoustic non-contact liquid handler Echo550 (Labcyte). […]

[2] = system: A549 (lung adenocarcinoma); assay: Cytotoxic MTS assay, A549; assay type: cell-based, human
Experimental: as §1, §2, §3, §4

[3] = system: MRC-5LD (noncancerous human lung fibroblasts doxorubicin-resistant); assay: Cytotoxic MTS assay, MRC-5LD; assay type: cell-based
Experimental: as §1, §2, §3, §4

[4] = system: BJLD (human lung fibroblast doxorubicin-resistant); assay: Cytotoxic MTS assay, BJLD; assay type: cell-based
Experimental: as §1, §2, §3, §4

[5] = system: K562 (chronic myeloid leukemia); assay: Cytotoxic MTS assay, K562; assay type: cell-based, human
Experimental: as §1, §2, §3, §4

[6] = system: HCT116p53−/− (HCT116 with deleted p53 gene); assay: Cytotoxic MTS assay, HCT116p53−/−; assay type: cell-based, human
Experimental: as §1, §2, §3, §4

[7] = system: HCT116 (colorectal carcinoma); assay: Cytotoxic MTS assay, HCT116; assay type: cell-based, human
Experimental: as §1, §2, §3, §4

[8] = system: BJ (noncancerous human fibroblasts from foreskin); assay: Cytotoxic MTS assay, BJ; assay type: cell-based
Experimental: as §1, §2, §3, §4

U2OS (osteosarcoma) = assay: Cytotoxic MTS assay, U2OS; assay type: cell-based, human
Experimental: as §1, §2, §3, §4

[9] = system: CEM-DNR bulk (daunorubicin-resistant subline of CCRF-CEM cells); assay: Cytotoxic MTS assay, CEM-DNR; assay type: cell-based, human
Experimental: as §1, §2, §3, §4

[10] = system: K562-TAX (chronic myeloid leukemia paclitaxel-resistant subline); assay: Cytotoxic MTS assay, K562-TAX; assay type: cell-based, human
Experimental: as §1, §2, §3, §4

[11] = system: MRC-5 (noncancerous human lung fibroblasts); assay: Cytotoxic MTS assay, MRC-5; assay type: cell-based
Experimental: as §1, §2, §3, §4

melting point	Structure (SMILES)	IC50 [1]	IC50 [2]	IC50 [3]	IC50 [4]	IC50 [5]	IC50 [6]	IC50 [7]	IC50 [8]	IC50 (U2OS (osteosarcoma))	IC50 [9]	IC50 [10]	IC50 [11]
88 to 89 °C	O=C(OCCCSc1ccnc2cc(Cl)ccc12)c1ccc(Cl)cc1Cl [Compound 34, 3-[(7-Chloroquinolin-4-yl)sulfanyl]propyl-2,4-dichlorobenzoate]												
134 to 136 °C	O=C(OCCSc1ccnc2cc(Cl)ccc12)c1ccc(C(F)(F)F)cc1 [Compound 20, 2-[(7-Chloroquinolin-4-yl)sulfanyl]ethyl 4-(trifluoromethyl)benzoate]												
126 to 128 °C	COc1ccc(C(=O)OCC[S+]([O-])c2ccnc3cc(Cl)ccc23)cc1 (centres unmarked) [Compound 42, 2-[(7-Chloroquinolin-4-yl)sulfinyl]ethyl-4-methoxybenzoate]												
94 to 96 °C	O=C(OCCSc1ccnc2cc(Cl)ccc12)c1cccc(Cl)c1 [Compound 16, 2-[(7-Chloroquinolin-4-yl)sulfanyl]ethyl 3-chlorobenzoate]												
95 to 97 °C	COc1ccccc1C(=O)OCCCSc1ccnc2cc(Cl)ccc12 [Compound 31, 3-[(7-Chloroquinolin-4-yl)sulfanyl]propyl-2-methoxybenzoate]												
98 to 100 °C	COc1cc(C(=O)OCCCSc2ccnc3cc(Cl)ccc23)cc(OC)c1OC [Compound 30, 3-[(7-Chloroquinolin-4-yl)sulfanyl]propyl-3,4,5-trimethoxybenzoate]												
116 to 118 °C	COc1ccc(C(=O)OCCSc2ccnc3cc(Cl)ccc23)cc1 [Compound 5, 2-[(7-Chloroquinolin-4-yl)sulfanyl]ethyl-4-methoxybenzoate]												
97 to 98 °C	COc1ccc(OC)c(C(=O)OCCCSc2ccnc3cc(Cl)ccc23)c1 [Compound 26, 3-[(7-Chloroquinolin-4-yl)sulfanyl]propyl-2,5-dimethoxybenzoate]												

The next lines start with the compound.

Structure (SMILES)	melting point	IC50 [1]	IC50 [2]	IC50 [3]	IC50 [4]	IC50 [5]	IC50 [6]	IC50 [7]	IC50 [8]	IC50 (U2OS (osteosarcoma))	IC50 [9]	IC50 [10]	IC50 [11]
COc1ccccc1C(=O)OCCCS(=O)(=O)c1cc[n+]([O-])c2cc(Cl)ccc12 [Compound 78, 3-[(N-Oxide 7-chloroquinolin-4-yl)sulfonyl]propyl-2-methoxybenzoate]		2.63 µM	7.75 µM	19.5 µM	19.7 µM	7.37 µM	6.99 µM	5.64 µM	25 µM	7.18 µM	9.18 µM	8.78 µM	22.6 µM
COc1ccc(OC)c(C(=O)OCCCS(=O)(=O)c2cc[n+]([O-])c3cc(Cl)ccc23)c1 [Compound 75, 3-[(N-Oxide 7-chloroquinolin-4-yl)sulfonyl]propyl-2,5-dimethoxybenzoate]		1.45 µM	7.28 µM	18.9 µM	17.8 µM	7.14 µM	6.86 µM	5.37 µM	26.6 µM	6.4 µM	7.22 µM	9.56 µM	21.5 µM
O=C(OCCCS(=O)(=O)c1cc[n+]([O-])c2cc(Cl)ccc12)c1ccc(C(F)(F)F)cc1 [Compound 82, 3-[(N-Oxide 7-chloroquinolin-4-yl)sulfonyl]propyl-4-(trifluoromethyl)benzoate]		1.05 µM	6.66 µM	19.8 µM	13.9 µM	6.24 µM	6.59 µM	4.9 µM	23.5 µM	5.05 µM	3.46 µM	4.01 µM	23.7 µM
Cc1ccc([N+](=O)[O-])c(C(=O)OCCCS(=O)(=O)c2cc[n+]([O-])c3cc(Cl)ccc23)c1 [Compound 80, 3-[(N-Oxide 7-chloroquinolin-4-yl)sulfonyl]propyl-5-methyl-2-nitrobenzoate]		1.49 µM	6.44 µM	16.3 µM	15.9 µM	6.75 µM	6 µM	4.61 µM	22.2 µM	5.74 µM	6.78 µM	6 µM	20 µM
COc1cc(OC)c(C(=O)OCCCS(=O)(=O)c2cc[n+]([O-])c3cc(Cl)ccc23)cc1OC [Compound 76, 3-[(N-Oxide 7-chloroquinolin-4-yl)sulfonyl]propyl-2,4,5-trimethoxybenzoate]		2.22 µM	11.4 µM	19.6 µM	24.4 µM	8.77 µM	8.66 µM	7.96 µM	35.7 µM	9.33 µM	18.1 µM	19.9 µM	22.5 µM
COc1cccc(C(=O)OCCS(=O)(=O)c2cc[n+]([O-])c3cc(Cl)ccc23)c1OC [Compound 64, 2-[(N-Oxide 7-chloroquinolin-4-yl)sulfonyl]ethyl-2,3-dimethoxybenzoate]		0.71 µM	28.4 µM	3.28 µM	8.95 µM	5.51 µM	7.68 µM	8.18 µM	9.19 µM	7.43 µM	8.99 µM	5.65 µM	6.08 µM
COc1cc(C(=O)OCCCS(=O)(=O)c2cc[n+]([O-])c3cc(Cl)ccc23)cc(OC)c1OC [Compound 77, 3-[(N-Oxide 7-chloroquinolin-4-yl)sulfonyl]propyl-3,4,5-trimethoxybenzoate]		1.58 µM	9.02 µM	20.1 µM	21.6 µM	7.5 µM	6.75 µM	6.51 µM	28.6 µM	7.81 µM	12 µM	10.9 µM	25.6 µM
